Data from US7189718B2, “Non-nucleoside reverse transcriptase inhibitors” (Roche Palo Alto LLC, priority 2003, dated 2007).
pIC50: −log10 of the molar value.

target: T1, HIV-1 RT (Human immunodeficiency virus type 1 group M subtype B, UniProt P03366); assay: HIV Reverse Transcriptase Assay: Inhibitor IC50 Determination; type: biochemical; conditions: purified recombinant enzyme, poly(rA)/oligo(dT)16 template-primer, 4 nM HIV-1 RT, 37° C. for 30 min, 10% DMSO; read-out: RT inhibition IC50
T1 construct: HIV-1 RT assay was carried out in 96-well Millipore MultiScreen MADVNOB50 plates using purified recombinant enzyme
Procedure: HIV Reverse Transcriptase Assay: Inhibitor IC50 Determination
HIV-1 RT assay was carried out in 96-well Millipore MultiScreen MADVNOB50 plates using purified recombinant enzyme and a poly(rA)/oligo(dT)16 template-primer in a total volume of 50 μL. The assay constituents were 50 mM Tris/HCl 50 mM NaCl, 1 mM EDTA, 6 mM MgCl2, 5 μM dTTP, 0.15 μCi [^3H] dTTP, 5 μg/ml poly (rA) pre annealed to 2.5 μg/ml oligo (dT)16 and a range of inhibitor concentrations in a final concentration of 10% DMSO. Reactions were initiated by adding 4 nM HIV-1 RT and after incubation at 37° C. for 30 min, they were stopped by the addition of 50 μl ice cold 20% TCA and allowed to precipitate at 4° C. for 30 min. The precipitates were collected by applying vacuum to the plate and sequentially washing with 3×200 μl of 10% TCA and 2×200 μl 70% ethanol. Finally, the plates were dried and radioactivity counted in a Packard TopCounter after the addition of 25 μl scintillation fluid per well. IC50's, were calculated by plotting % inhibition versus log10 inhibitor concentrations.

SMILES	pIC50
CCc1ccc(Cc2cc(C)c(=O)[nH]n2)cc1Oc1cc(Cl)cc(C#N)c1 [I-98, 3-Chloro-5-[2-ethyl-5-(5-methyl-6-oxo-1,6-dihydro-pyridazin-3-ylmethyl)-phenoxy]-benzonitrile]	7.71
O=c1ccc(Cc2ccc(Cl)c(Oc3cc(Cl)ccc3Cl)c2)n[nH]1 [I-102, 6-[4-Chloro-3-(2,5-dichloro-phenoxy)-benzyl]-2H-pyridazin-3-one]	7.69
Cc1cc(Cc2ccc(Cl)c(Oc3cc(C#N)cc(C(F)F)c3)c2F)n[nH]c1=O [I-237, 3-[6-Chloro-2-fluoro-3-(5-methyl-6-oxo-1,6-dihydro-pyridazin-3-ylmethyl)-phenoxy]-5-difluoromethyl-benzonitrile]	7.89
O=c1ccc(Cc2ccc(Cl)c(Oc3cc(Cl)ccc3Br)c2)n[nH]1 [I-77, 6-[3-(2-Bromo-5-chloro-phenoxy)-4-chloro-benzyl]-2H-pyridazin-3-one]	7.62
O=c1ccc(Cc2ccc(Cl)c(Oc3cc(Cl)ccc3Br)c2F)n[nH]1 [I-136, 6-[3-(2-Bromo-5-chloro-phenoxy)-4-chloro-2-fluoro-benzyl]-2H-pyridazin-3-one]	8.10
Cc1cc(Cc2ccc(Cl)c(Oc3cc(C#N)cc(C#N)c3)c2)n[nH]c1=O [I-135, 5-[2-Chloro-5-(5-methyl-6-oxo-1,6-dihydro-pyridazin-3-ylmethyl)-phenoxy]-isophthalonitrile]	7.90
Cc1cc(Cc2ccc(Cl)c(Oc3cc(Cl)ccc3Br)c2)n[nH]c1=O [I-103, 6-[3-(2-Bromo-5-chloro-phenoxy)-4-chloro-benzyl]-4-methyl-2H-pyridazin-3-one]	8.03
Cc1ccc(Cl)cc1Oc1cc(Cc2cc(C)c(=O)[nH]n2)ccc1Cl [I-123, 6-[4-Chloro-3-(5-chloro-2-methyl-phenoxy)-benzyl]-4-methyl-2H-pyridazin-3-one]	7.64
CCc1ccc(Cc2ccc(=O)[nH]n2)cc1Oc1cc(C)cc(C#N)c1 [I-100, 3-[2-Ethyl-5-(6-oxo-1,6-dihydro-ridazin-3-ylmethyl)-phenoxy]-5-methyl-nzonitrile]	7.62
CCc1ccc(Cc2cc(C)c(=O)[nH]n2)cc1Oc1cc(C)cc(C#N)c1 [I-109, 3-[2-Ethyl-5-(5-methyl-6-oxo-1,6-dihydro-yridazin-3-ylmethyl)-phenoxy]-5-methyl-benzonitrile]	7.67
CCc1ccc(Cc2ccc(=O)[nH]n2)c(F)c1Oc1cc(Cl)cc(C#N)c1 [I-224, 3-Chloro-5-[6-ethyl-2-fluoro-3-(6-oxo-1,6-dihydro-pyridazin-3-ylmethyl)-phenoxy]-benzonitrile]	7.74
Cc1cc(Cc2ccc(Cl)c(Oc3cc(Cl)cc(C#N)c3)c2)n[nH]c1=O [I-108, 3-Chloro-5-[2-chloro-5-(5-methyl-6-oxo-1,6-dihydro-pyridazin-3-ylmethyl)-phenoxy]-benzonitrile]	7.95
O=c1ccc(Cc2cc(Oc3cc(Br)cc(Br)c3)c3occc3c2)n[nH]1 [I-142, 6-[7-(3,5-Dibromo-phenoxy)-benzofuran-5-ylmethyl]-2H-pyridazin-3-one]	7.82
